Test results as given in patent US9045401B2, “Methods for treating or ameliorating a melanoma and killing melanoma cells” (THE REGENTS OF THE UNIVERSITY OF CALIFORNIA, priority 2007, dated 2015).
“Also recorded” adds a separate entry of the source. Where two headings read alike, the source gives them in different places.

Legend:
M21 melanoma cells = test: XTT cell proliferation assay; type: cell-based; settings: Homo sapiens, anti-proliferative effect, FIG. 6
Method: (§1) Cytotoxicity Assay. Cytotoxicity of ScA was assessed using the XTT cell proliferation assay. Briefly cells were plated on 96 well plates (5,000 per well) and incubated over night at 37° C. to allow for attachment and spreading. After 24 h, ScA was added from a DMSO stock, previously frozen at −80C as added directly from serial dilutions in DMSO at concentrations ranging from 100 uM to 100 fM. After 72 h, XTT (Aldrich Chemicals) was added to a final concentration of 250 ug/well. The plates were then incubated under standard tissue culture conditions until the control wells (DMSO) reached an OD value between 1.0-1.5. as measured at 450 nm using a microtiter plate reader. The cell viability-drug dilution profiles were obtained from sigma plots, and drug concentrations which inhibited growth by 50% were calculated from multiple runs. (IC50)

[1] = test system: Molt-4 T cell leukemia cells; test: XTT cell proliferation assay; type: cell-based; settings: Homo sapiens, anti-proliferative effect, FIG. 6
Method: as §1

[2] = test system: PC3 prostate cancer cells; test: XTT cell proliferation assay; type: cell-based; settings: Homo sapiens; anti-proliferative effect, FIG. 6
Method: as §1

TJK304 cells = test: XTT cell proliferation assay; type: cell-based; settings: anti-proliferative effect, FIG. 6
Method: as §1

[3] = test system: pancreatic metastatic mouse carcinoma cells; test: XTT cell proliferation assay; type: cell-based; settings: anti-proliferative effect, FIG. 6
Method: as §1

[4] = test system: NB7 caspase 8 positive cells; test: XTT cell proliferation assay; type: cell-based, human
Method: Cell lines. Cells and cell lines were maintained in either DMEM or RPMI supplemented with 10% FCS. The caspase-deficient NB7 neuroblastoma cells have been previously described (33). C8-deficient and reconstituted jurkat cells were provided by Dr. Steve Hedrick (UCSD). Silencing of Caspase-8 gene expression in the A549 cells was performed through the use of delivering shRNA in a lentiviral format. Briefly 293 T cells were transfected with caspase-8, (Open Biosystems) or scrambled (Addgene) shRNAs in pLK0.1 lentiviral vector, together with lentiviral packaging plasmids (PMLDL, VSV-G and RSV-REV) using fugene6. The ratio of target ShRNAs and packaging plasmids was ShRNA/PMLDL/VSV-G/RSV-REV, 10/10/6/4 μg. Lentiviral supernatants from 293 T cells were harvested after 48 hours and used to infect A549 cells. Viral constructs were incubated for 24 h with A549 cell lines prior to replacing media with selective media containing puromycin (1 μg/ml). […]
Cytotoxicity Assay. Cytotoxicity of ScA was assessed using the XTT cell proliferation assay. […] The plates were then incubated under standard tissue culture conditions until the control wells (DMSO) reached an OD value between 1.0-1.5. as measured at 450 nm using a microtiter plate reader. The cell viability-drug dilution profiles were obtained from sigma plots, and drug concentrations which inhibited growth by 50% were calculated from multiple runs. […]

A-549 lung cancer cells = test: XTT cell proliferation / viability assay; type: cell-based, human; settings: for IC50: Homo sapiens
Method: Cell lines. Cells and cell lines were maintained in either DMEM or RPMI supplemented with 10% FCS. The caspase-deficient NB7 neuroblastoma cells have been previously described (33). C8-deficient and reconstituted jurkat cells were provided by Dr. Steve Hedrick (UCSD). Silencing of Caspase-8 gene expression in the A549 cells was performed through the use of delivering shRNA in a lentiviral format. Briefly 293 T cells were transfected with caspase-8, (Open Biosystems) or scrambled (Addgene) shRNAs in pLK0.1 lentiviral vector, together with lentiviral packaging plasmids (PMLDL, VSV-G and RSV-REV) using fugene6. The ratio of target ShRNAs and packaging plasmids was ShRNA/PMLDL/VSV-G/RSV-REV, 10/10/6/4 μg. Lentiviral supernatants from 293 T cells were harvested after 48 hours and used to infect A549 cells. Viral constructs were incubated for 24 h with A549 cell lines prior to replacing media with selective media containing puromycin (1 μg/ml). The suppression of caspase-8 was verified by western blot.
as §1

[5] = test system: HUVEC primary endothelial cells; test: 72 h XTT assay for Huvec cell proliferation; type: cell-based, human
Method: FIG. 2A illustrates a microtiter plate 72 hour (h) XTT assay for Huvec cell proliferation (2500 cells/well seeded), showing serial dilutions of structurally diverse marine natural compounds. […] FIG. 2B graphically illustrates the data for this study.
as §1

HUVEC cells = test: endothelial cell tube formation on Matrigel; type: cell-based, human
Method: Endothelial Cell Tube Formation. 96-well plates were coated with 200 uL matrigel per well and stored at 4° C. until use. HUVEC cells were harvested and cell suspensions were prepared at a density of 200,000/ml., and added at 100 ul per well to the plates. […] The plates were incubated at 37° C. under standard incubator conditions and the results were observed microcopically for tube formation.

[6] = test system: Transgenic Tg(fli1:EGFP) zebrafish embryos; test: blood vessel formation in zebrafish; type: in vivo; settings: for blood vessel growth and angiogenesis: 80 nM to 3 μM in the water, dose-dependent; for viability / acute toxicity to the fish: 24 hour period of the study
Method: Zebrafish Experiments. Blood vessel formation in Zebrafish: Transgenic Tg(fli1:EGFP) zebrafish embryos were purchased from www.zfin.org as reported elsewhere (34). Adult fish and embryos were maintained according to “Zebrafish—A Practical Approach” (35). ScA compound in DMSO stock solution was diluted directly into the water and zebrafish intersegmental vessels were imaged using Nikon c1-si confocal microscope after the times specified. Raw image datasets were processed using IMARIS 3D™ image analysis software. All animal procedures were conducted in accordance with all appropriate regulatory standards under protocol #S06008 approved by the University of California San Diego (UCSD) Institutional Animal Care and Use Committee.

A549 cells = test: confocal microscopy of ceramide and caspase 8; type: cell-based, human
Method: Confocal microscopy. […] After treatment, the cells were fixed 10 minutes at room temperature with 4% PFA, washed twice with PBS, permeabilized 2 minutes at room temperature with 0.1% triton in PBS and blocked for 30 minutes with sterile 2% BSA in PBS. The staining was performed at room temperature for 2 hours (h), with mouse monoclonal anti-human ceramide (Alexis) and rabbit anti-human caspase 8 (BD Pharmingen) antibodies followed by secondary goat anti-mouse ALEXA FLUOR568™ and goat anti-rabbit ALEXA FLUOR488™ antibodies (Invitrogen). The blue DNA binding dye TOPRO-3™ (Molecular Probes) was added together with the secondary antibodies. The cells were washed three times with PBS between the different incubation steps and the incubation with the secondary fluorescently labeled antibodies was performed in the dark. All antibodies were diluted in PBS. Confocal images were recorded on a Nikon ECLIPSE C1™ confocal microscope.

[7] = partition from liquid phase into 100 nanometer liposomes (nanosomes); type: physicochemical
Method: Preparation of Liposomes. Cholesterol:Dope:Dspc:Sca:Dspe-Mpeg (in 1:1:1:0.16:0.16 molar ratio) in chloroform were taken in 30 mL glass culture tubes, dried under a stream of nitrogen gas and vacuum-dessicated for a minimum of 6 h to remove any residual organic solvent. The dried lipid film was hydrated in sterile deionized water in a total volume of 1 mL for a minimum of 12 h. Liposomes were vortexed for 2-3 minutes to remove any adhering lipid film and sonicated in a bath sonicator (ULTRASONIK 28X™) for 2-3 minutes at room temperature to produce multilamellar vesicles (MLV). MLVs were then sonicated with a Ti-probe (using a BRANSON450™ sonifier at 100% duty cycle and 25 W output power) in an ice bath for 1-2 minutes to produce small unilamellar vesicles (SUVs) as indicated by the formation of a clear translucent solution. The solution was pressure filtered in sequence though 200 and then 100 nm nucelopore polycarbonate membranes to obtain liposome nanoparticles of 100 nm with a polydispersity factor of less than 0.1.

[8] = solubility in aqueous media; type: physicochemical

Question: For `C=CC/C=C/N(C)C(=O)CCCCCCCC/C=C/[C@H](CSSC[C@@H](/C=C/CCCCCCCCC(=O)N(C)/C=C/CC=C)NC(C)=O)NC(C)=O` [somocystinamide A, Somocystinamide A], which IC50 (M21 melanoma cells) is on record?
Answer: Its IC50 is 1280 nM.

Question: And the IC50 [1]?
Answer: Its IC50 is 600 nM.

Question: What about the IC50 [2] of the same compound?
Answer: The IC50 was 970 nM.

Question: And the IC50 (TJK304 cells)?
Answer: The IC50 was 830 nM.

Question: What about the IC50 [3] of the same compound?
Answer: Its IC50 is 8 nM.

Question: What about the IC50 ([4]; Homo sapiens, anti-proliferative effect, FIG. 6) of the same compound?
Answer: The IC50 was 12 nM.

Question: And the “sensitivity of the caspase 8 positive cells to ScA” value ([4]; relative to NB7 cells)?
Answer: The value was 100 times.

Question: What about the IC50 (A-549 lung cancer cells; A549, anti-proliferative effect, FIG. 6) of the same compound?
Answer: The IC50 was 46 nM.

Question: What about the IC50 (A-549 lung cancer cells; A549, percent cell viability, FIG. 16) of the same compound?
Answer: The IC50 was 114 nM.

Question: What about the “pro-apoptotic response induced by scA” value (A-549 lung cancer cells; lentivirus shRNA silencing of caspase 8 or caspase 3, FIG. 24) of the same compound?
Answer: Its value is “attenuate the pro-apoptotic response”.

Question: What about the “loss in sensitivity to ScA” value (A-549 lung cancer cells; shRNA knockdown of caspase 8, FIG. 28E) of the same compound?
Answer: Its value is “five-fold”.

Question: And the “cytotoxicity, concentration range” value ([5]; 72 h XTT, 2500 cells/well, FIG. 2)?
Answer: Its value is “cytotoxicity in the nanomolar concentration range”.

Question: And the IC50 ([5]; Homo sapiens, HUVEC, anti-proliferative effect, FIG. 6, read-out: IC50)?
Answer: Its IC50 is 0.004 nM.

Question: And the IC50 ([5]; cultured endothelial cells, XTT 72 hours)?
Answer: The IC50 was “picomolar range”.

Question: And the “tube formation of HUVEC/matrigel” value (HUVEC cells; 1 μM, 100 μM and 10 nM, FIG. 3)?
Answer: Its value is “inhibits tube formation”.

Question: And the “endothelial cell tube formation” value (HUVEC cells; 48 hours, FIG. 30B, listed as ScA)?
Answer: The value was “potently blocked endothelial cell tube formation; also recorded: endothelial cell tube formation was disrupted in dose-dependent manner”.

Question: And the “blood vessel growth and angiogenesis” value [6]?
Answer: Its value is “potently inhibited angiogenesis”.

Question: And the “blood vessel growth and angiogenesis” value ([6]; listed as ScA)?
Answer: The value was “blocked blood vessel growth and angiogenesis”.

Question: What about the “viability / acute toxicity to the fish” value [6] of the same compound?
Answer: The value was “without acute toxicity”.

Question: What about the “viability / acute toxicity to the fish” value ([6]; listed as ScA) of the same compound?
Answer: Its value is “all of the fish remained viable”.

Question: And the “colocalization of ceramide and caspase 8” value (A549 cells; 0.10 μM, 30 minutes or six hours)?
Answer: Its value is “induced colocalization of ceramide and caspase 8”.

Question: And the cell surface ceramide (A549 cells; 300 nM, 30 minutes after treatment)?
Answer: The cell surface ceramide was “accumulation, and aggregation, of cell surface ceramide”.

Question: And the “interchelation of ScA within the nanosomes” value [7]?
Answer: The value was “essentially complete within thirty minutes”.

Question: And the solubility [8]?
Answer: Its solubility is “limited solubility”.
